In ChEMBL document CHEMBL1201862, “PubChem BioAssay data set” (2004):
Active and inactive are the calls of the source.

How the values were obtained:
Large T antigen = Large T antigen (Simian virus 40, UniProt P03070); assay type: functional, Betapolyomavirus macacae;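 also: Confirmatory-stage PubChem screen for compounds that inhibit SV40 T antigen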
[1] = viability of uninfected HEp-2 cells – cell-based, HTS, cytotoxicity control for RSV inhibitor project, dose response (AID 2410); assay type: functional; settings: human respiratory syncytial virus
[2] = Luminescence Cell-Based Dose Retest to Confirm Inhibitors of Cancer Stem Cells. [Related pubchem assays (depositor defined):AID2717, AID2721]; assay type: functional; settings: Homo sapiens
[3] = biological target: T1, Heat shock factor protein 1 (Mus musculus, UniProt P38532); assay: enhancement of HSF1-driven luciferase signal – cell-based, NIH3T3, luminescence, dose retest, confirmation (AID 435004); assay type: functional;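 also: stress induced by proteasome inhibitor MG132 added 30 min after compound; luciferase reporter driven by HSF1 response element in NIH3T3 cells; actives raise luminescence as potentiators of the MG132 stress response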
T1 sequence (P38532 whole entry): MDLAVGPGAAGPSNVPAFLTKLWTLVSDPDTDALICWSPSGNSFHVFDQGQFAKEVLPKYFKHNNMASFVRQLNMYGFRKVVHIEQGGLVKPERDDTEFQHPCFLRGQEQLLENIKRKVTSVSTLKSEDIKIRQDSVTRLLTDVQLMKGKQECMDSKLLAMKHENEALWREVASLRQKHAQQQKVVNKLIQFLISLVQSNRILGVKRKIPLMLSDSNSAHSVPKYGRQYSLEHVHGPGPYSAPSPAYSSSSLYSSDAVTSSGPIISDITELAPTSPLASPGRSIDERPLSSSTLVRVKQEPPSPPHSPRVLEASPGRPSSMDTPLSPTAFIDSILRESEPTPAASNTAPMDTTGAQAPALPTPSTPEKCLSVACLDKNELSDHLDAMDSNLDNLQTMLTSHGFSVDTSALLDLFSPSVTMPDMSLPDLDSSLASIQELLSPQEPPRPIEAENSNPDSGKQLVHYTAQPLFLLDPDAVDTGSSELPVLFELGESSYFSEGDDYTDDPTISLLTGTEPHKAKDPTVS

SN12K1 = assay: cells; assay type: functional; settings: Homo sapiens
P388 = assay: cells; assay type: functional; settings: Mus musculus
P388/ADR = assay: cells; assay type: functional; settings: Mus musculus
Cytochrome P450 1A2 = biological target: T2, Cytochrome P450 1A2 (Homo sapiens, UniProt P05177);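 also: PubChem cytochrome P450 panel assay, CYP1A2 panel member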
T2 sequence (P05177 whole entry): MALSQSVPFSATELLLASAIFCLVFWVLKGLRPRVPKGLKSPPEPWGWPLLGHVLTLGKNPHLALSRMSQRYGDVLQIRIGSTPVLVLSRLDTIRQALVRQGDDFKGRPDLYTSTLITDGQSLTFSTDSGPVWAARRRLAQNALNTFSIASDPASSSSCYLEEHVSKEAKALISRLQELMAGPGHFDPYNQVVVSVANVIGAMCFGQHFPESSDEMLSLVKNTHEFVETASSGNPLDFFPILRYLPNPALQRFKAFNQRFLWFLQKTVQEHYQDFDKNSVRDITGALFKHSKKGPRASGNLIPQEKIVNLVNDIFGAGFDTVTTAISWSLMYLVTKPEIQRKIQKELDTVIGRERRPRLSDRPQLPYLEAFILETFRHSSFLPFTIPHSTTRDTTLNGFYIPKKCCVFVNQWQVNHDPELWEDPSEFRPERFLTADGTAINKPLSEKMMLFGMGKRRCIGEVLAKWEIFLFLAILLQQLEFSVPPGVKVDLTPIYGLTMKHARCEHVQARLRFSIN

cells = assay type: functional
[4] = biological target: T3, Rac GTPase-activating protein 1 (Homo sapiens, UniProt Q9H0H5); assay: blockers of MgcRacGAP-driven Rac1 GTP hydrolysis – biochemical, ADP Hunter fluorescence, primary and confirmatory, confirmation (AID 624330); assay type: functional
T3 sequence (Q9H0H5 whole entry): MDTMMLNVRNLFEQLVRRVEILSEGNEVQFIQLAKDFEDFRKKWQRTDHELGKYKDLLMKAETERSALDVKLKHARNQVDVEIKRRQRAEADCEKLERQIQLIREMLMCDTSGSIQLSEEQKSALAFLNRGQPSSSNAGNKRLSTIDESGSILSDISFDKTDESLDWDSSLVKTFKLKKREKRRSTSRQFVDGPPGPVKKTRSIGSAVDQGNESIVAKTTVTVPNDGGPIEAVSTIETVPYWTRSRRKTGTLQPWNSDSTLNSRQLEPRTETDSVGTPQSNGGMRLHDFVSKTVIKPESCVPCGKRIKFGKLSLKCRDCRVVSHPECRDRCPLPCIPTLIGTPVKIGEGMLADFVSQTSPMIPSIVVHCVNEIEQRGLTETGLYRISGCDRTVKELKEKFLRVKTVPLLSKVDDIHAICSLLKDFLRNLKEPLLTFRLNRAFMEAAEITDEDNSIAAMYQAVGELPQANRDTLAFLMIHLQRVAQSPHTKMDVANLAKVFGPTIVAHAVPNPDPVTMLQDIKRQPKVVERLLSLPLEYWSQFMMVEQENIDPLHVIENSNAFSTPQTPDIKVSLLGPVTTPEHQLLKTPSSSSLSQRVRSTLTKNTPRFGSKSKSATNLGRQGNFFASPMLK

Sequence of Large T antigen (P03070 whole entry): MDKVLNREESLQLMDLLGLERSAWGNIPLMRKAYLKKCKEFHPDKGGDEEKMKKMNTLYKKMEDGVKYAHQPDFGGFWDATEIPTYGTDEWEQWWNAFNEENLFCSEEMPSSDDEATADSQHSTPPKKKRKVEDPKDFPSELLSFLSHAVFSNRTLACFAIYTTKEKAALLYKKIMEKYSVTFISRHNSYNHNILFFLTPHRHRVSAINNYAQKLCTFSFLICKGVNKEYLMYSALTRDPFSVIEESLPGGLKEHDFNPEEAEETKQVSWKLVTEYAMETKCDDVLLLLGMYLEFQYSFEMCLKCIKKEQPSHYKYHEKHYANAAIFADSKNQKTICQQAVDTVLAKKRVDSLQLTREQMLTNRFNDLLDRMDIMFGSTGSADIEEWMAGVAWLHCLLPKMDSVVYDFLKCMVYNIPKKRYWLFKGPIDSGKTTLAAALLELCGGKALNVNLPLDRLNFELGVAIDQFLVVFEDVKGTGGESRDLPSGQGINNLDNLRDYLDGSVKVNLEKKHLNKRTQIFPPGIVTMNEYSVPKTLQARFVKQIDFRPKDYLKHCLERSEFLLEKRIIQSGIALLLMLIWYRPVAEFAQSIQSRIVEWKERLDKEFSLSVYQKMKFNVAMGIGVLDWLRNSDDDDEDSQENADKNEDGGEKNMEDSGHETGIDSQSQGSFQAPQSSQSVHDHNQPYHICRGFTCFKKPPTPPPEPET

Compound | GI50 (SN12K1) | GI50 (P388) | GI50 (P388/ADR) | further results
CN(C(=O)c1ccccc1C(=O)OCC(=O)NCc1cccs1)C1CCCCC1 | – | – | – | IC50 (Large T antigen): > 100 µM (active)
CCCCn1nnnc1SCC(=O)Nc1ccc(N(C)C)cc1 | – | – | – | IC50 (Large T antigen): 11.2 µM (active)
COC(=O)c1cc(NC(S)=NCc2ccc(Cl)cc2)cc(C(=O)OC)c1 | – | – | – | CC50 [1]: 26.3 µM (active)
CCc1ccc(NC(=O)c2cc3c(C)nc4ccccc4c3o2)cc1 | – | – | – | AC50 [2]: 6.51 µM (active); CC50 [1]: 39.6 µM (active)
CCOC(=O)CN1C=C(c2ccc3ccccc3n2)C(C[N+](=O)[O-])c2ccccc21 (stereo not given) | – | – | – | EC50 [3]: 70.3 µM (active)
[N-]=[N+]=CC(=O)OCC(N)C(=O)O (stereo not given) | 0.206 µM (active) | 0.156 µM (active) | 0.352 µM (active) | –
CCOc1ccc(C(=O)N2CCN(S(=O)(=O)c3cccs3)CC2)c(OCC)c1 | – | – | – | EC50 [3]: > 260 µM (inactive)
N#CC1=C(N)Oc2cc(O)c(/C=N/c3ccccc3)cc2C1c1ccccc1 (stereo not given) | – | – | – | CC50 [1]: 9.1 µM (active)
Cc1csc(N/N=C/c2ccccn2)n1 | – | – | – | AC50 [2]: 11.2 µM (active)
COc1cccc2c1C(=O)c1c(O)c3c(c(O)c1C2=O)C[C@@](O)(/C(C)=N/NC(=O)c1ccccc1)C[C@@H]3OC1CC(N)C(O)C(C)O1 (stereo not given in full) | 0.0586 µM (active) | 0.132 µM (active) | 5.61 µM (inactive) | –
COc1cccc(/C=N/NC(=S)NC2CC3CC2C2C=CCC32)c1O (stereo not given) | – | – | – | EC50 [3]: > 260 µM (inactive)
Nc1ccc2[nH]c3c(-c4ccccc4)nccc3c2c1 | 22.3 µM (inactive) | 6.21 µM (inactive) | 19.9 µM (inactive) | –
CCCCC(C)C1CCC2(C)C=CC(=O)C(C)=C2C1O (stereo not given) | > 100 µM (inactive) | > 100 µM (inactive) | > 100 µM (inactive) | –
CC(=O)OCC1OC(n2cc(F)c(=O)[nH]c2=O)C(NC(=O)OCc2ccccc2)C(OC(C)=O)C1OC(C)=O (stereo not given) | > 100 µM (inactive) | > 100 µM (inactive) | > 100 µM (inactive) | –
CC1C(O)C2(Oc3cc4c(c5c3[C@@H](CC5O)[C@H]2C)CCC2Cc3nc5c(nc3C[C@@]42C)CC2CCC3C4=C[C@H]6O[C@@]7(O[C@@](C)(CO)C[C@@H]7O)C(C)[C@@]6(O)[C@]4(C)[C@@H](O)CC3[C@]2(C)C5)OC1(C)C (stereo not given in full) | 0.0278 µM (active) | 0.0278 µM (active) | 0.52 µM (active) | –
C=C1C(=O)C[C@@]23CCC[C@@]12CC(O)C3 (stereo not given in full) | 17 µM (inactive) | 3.61 µM (inactive) | 5.15 µM (inactive) | –
CCOC(=O)c1ccc(N[C@@H]2c3cc4c(cc3C(c3cc(OC)c(O)c(OC)c3)[C@H]3C(=O)OCC32)OCO4)cc1O (stereo not given in full) | 0.0887 µM (active) | < 0.01 µM (active) | 0.227 µM (active) | –
COc1ccc2[nH]c3ccc4cc[n+](CCN5CCC(C6CCN(CC[n+]7ccc8ccc9[nH]c%10ccc(OC)cc%10c9c8c7)CC6)CC5)cc4c3c2c1 | 0.417 µM (active) | 0.546 µM (active) | 1.84 µM (inactive) | –
C/C(=C\c1ccc(C(=O)O)cc1)c1ccc2c(c1)C(C)(C)CCC2(C)C | – | – | – | AC50 (Cytochrome P450 1A2): 31.6 µM (inconclusive); AC50 [2]: 3.1 µM (active)
N/C(S)=N/c1c(Cl)cccc1Cl | – | – | – | IC50 (Large T antigen): 77.4 µM (active)
Cc1ccc(/N=N/c2c(C)[nH]n(C(N)=S)c2=O)cc1 | – | – | – | IC50 (cells): 5.24 µM (active)
CCOc1cc(/C=N/n2cnnc2)ccc1O | – | – | – | IC50 (Large T antigen): 13.6 µM (active); IC50 [4]: 34.3 µM (active)
C/C(N)=C(/C#N)C(=O)COC(=O)c1cc(-c2cccc3ccccc23)nc2ccccc12 | – | – | – | CC50 [1]: 7.25 µM (active)
Nc1ncnc2c1ncn2[C@@H]1O[C@H](COP(=O)(O)O)[C@@H](O)[C@@H]1O | > 50 µM (inactive) | > 7.93 µM (inactive) | > 16.1 µM (inactive) | –
C[C@@H]1O[C@@H](O[C@H]2CC[C@]3(C=O)[C@H]4CC[C@]5(C)[C@@H](c6ccc(=O)oc6)CC[C@]5(O)[C@@H]4CC[C@]3(O)C2)[C@H](O)[C@H](O)[C@H]1O[C@@H]1O[C@H](CO)[C@@H](O)[C@H](O)[C@H]1O [HELLEBRIN] | 0.0375 µM (active) | 64.7 µM (inactive) | 113 µM (inactive) | –
